Assay results from US4083953A, “Pharmaceutical composition containing 5:6-benzo-alpha-pyrone derivatives and method of use thereof” (Carlo Erba, S.p.A., priority 1973, dated 1978).
Like-named read-outs stand apart in the source and are kept apart here.

Experiments:
Format in all cases: in vivo
[1] = test system: passive cutaneous anaphylaxis (PCA); test: passive cutaneous anaphylaxis (PCA) test in rats, oral; settings: Rattus norvegicus, 50 mg/kg p.o., read-out: % Inhibition In Comparison With Controls
Description: They can be therefore used in prevention and treatment of bronchial asthma, allergic rhinitis, hay fever, urticaria and dermatosis.

[2] = test system: bronchoconstrictive effect of 5-HT; test: antagonism of the bronchoconstrictive effect of 5-HT in rats; settings: 3 mg/kg i.v.
[3] = test system: bronchoconstrictive effect of compound 48/80 (histamine releasing drug); test: antagonism of the bronchoconstrictive effect of compound 48/80 in rats; settings: 3 mg/kg i.v.
[4] = test system: airway resistance and pulmonary compliance; test: airway resistance and pulmonary compliance in rats (technique of Palecek et al.); settings: dosage as low as 3 mg/kg i.v.
Description: In addition to anti-allergic activity, the compounds of this invention are effective in decreasing the airway resistance and in increasing pulmonary compliance, and can be therefore used for the treatment of respiratory insufficiency, such as, for example, acute pulmonary insufficiency, as shown by the results obtained in rats using the technique described by Palecek F., Palecekova M., and Aviado D. M. (Arch. Environ. Health, 1967, 15:332-342).

stress-induced ulcers = test: inhibition of stress-induced ulcers in rats (restraint in a water bath at 25° for 40 minutes); settings: 50 mg/kg i.v.

Structure (SMILES) | inhibition in vivo at 50 mg/kg ([1]; 0.25 h, 15 min. pretreatment) | inhibition in vivo at 50 mg/kg ([1]; 0.5 h, 30 min. pretreatment) | inhibition in vivo at 50 mg/kg ([1]; 1 h, 60 min. pretreatment) | inhibition in vivo at 50 mg/kg ([1]; 2 h, 120 min. pretreatment) | antagonizing the bronchoconstrictive effect of 5-HT [2] | antagonizing the bronchoconstrictive effect of compound 48/80 [3] | effect on airway resistance [4] | effect on pulmonary compliance [4] | inhibition of the stress-induced ulcers (stress-induced ulcers)
O=C(O)c1ccc2oc3ccc(OCCO)cc3c(=O)c2c1 [AH 7725, 2-carboxy-7-hydroxyethoxy-xanthone] | 42.6% | 14.4% | 13.3% | 3.8% |  |  |  |  | 
O=C(O)c1ccc2oc(-c3cnccn3)cc(=O)c2c1 [6-carboxy-2-(2'-pyrazinyl)-chromone] | 87% | 47.3% | 31.9% | 26.3% |  |  |  |  | 
CC(C)Oc1ccccc1-c1cc(=O)c2cc(C(=O)O)ccc2o1 [6-carboxy-2'-isopropoxy-flavone] | 82.9% | 39.5% | 27.6% | 24.4% | 50% | 50% | lower the airway resistance | increase pulmonary compliance | 
O=C(O)c1ccc2oc(-c3ccccc3)cc(=O)c2c1 [6-carboxy-flavone] | 32.1% | 23.5% | 6.8% | 3.4% |  |  |  |  | 
O=C(O)c1ccc2oc(-c3ccc(O)cc3)cc(=O)c2c1 [6-carboxy-4'-hydroxy-flavone] | 9.2% | 4% | 3.7% | 3.9% |  |  |  |  | 
O=C(O)c1ccc2oc(C=Cc3ccccc3)cc(=O)c2c1 [6-carboxy-2-(β-phenyl-vinyl)-chromone] | 69.9% | 45.8% | 19.6% | 16.6% |  |  |  |  | 
O=C(O)c1ccc2oc(-c3cccc(Cl)c3)cc(=O)c2c1 [6-carboxy-3'-chloro-flavone] | 31% | 22.3% | 5.9% | 2.1% |  |  |  |  | 
O=C(O)c1cc(=O)c2c(OCC(O)COc3cccc4oc(C(=O)O)cc(=O)c34)cccc2o1 [DSCG, disodium cromoglycate] | 6% | 5.5% | 3.2% | 2.5% |  |  |  |  | 
CC(C)Oc1ccccc1-c1cc(=O)c2cc(C(=O)[O-])ccc2o1.[Na+] [6-carboxy-2'-isopropoxy-flavone sodium salt] |  |  |  |  |  |  |  |  | 45%
